Assay results published in US20220144812A1, “QUINOLINE DERIVATIVES AND THEIR USE FOR THE TREATMENT OF CANCER” (Epizyme, Inc., priority 2019, published 2022).

Test system: SW1710 bladder cell line
Test: 7-day proliferation assay, SW1710
Format: cell-based
Settings: Homo sapiens, 168 h; SW1710, 7 days, CellTiter-Glo
Protocol: This example describes methods and materials for 7-day proliferation assay.
A total of 22 bladder cell lines were used (see table below). Cell lines were cultured in recommended growth media according to supplier.
Cells were in culture media at a density optimized for a 7-day culture in a final volume of 150 μL per well in white opaque 96-well plates. Cells were allowed to adhere for several hours (4-6 h) then compounds were added with HPD300 Digital Dispenser and placed into the incubator at 37° C., 5% CO2 for 7 days. After 7 days incubation, 100 μL of CellTiter-Glo® Luminescent Cell Viability Assay (Promega-G7573) reagents were added per well. After 20 minutes incubation luminescence was measured in plate reader. IC50 were calculated from a non-linear logarithmic growth curve.
IC50 values (nanomolar (nM)) are summarized in the table below, which depicts the inhibitory effect of certain compounds in bladder cell lines.

| IC50 [nM] | SMILES |
| --- | --- |
| 290 | CCn1ncc(CN(C)C(=O)c2cc(-c3ccc(NCCNC)c(C)n3)nc3ccc(Cl)cc23)c1C [Compound 3, 6-chloro-N-[(1-ethyl-5-methyl-1H-pyrazol-4-yl)methyl]-N-methyl-2-(6-methyl-5-{[2-(methylamino)ethyl]amino}pyridin-2-yl)quinoline-4-carboxamide] |
| 184 | CCn1ncc(CN(C)C(=O)c2cc(-c3ccc(NC4CN(C)C4)c(C)n3)nc3ccc(Cl)cc23)c1C [Compound 480] |
| 190 | CCc1noc(CN(C)C(=O)c2cc(-c3ccc(NCCNC)c(C)n3)nc3ccc(Cl)cc23)c1C [Compound 537] |
| 143 | CCc1ncc(CN(C)C(=O)c2cc(-c3ccc(NCCN(C)C)c(C)n3)nc3ccc(Cl)cc23)n1C [Compound 577] |
